As a reminder, the IC50 is the concentration that inhibits the measured activity by half. In general, melting point refers to the temperature, or range, at which the solid turns liquid.

The values that follow come from patent US20020028945A1, “Heterocyclo substituted hydroxamic acid derivatives as cyclooxygenase-2 and 5-lipoxygenase inhibitors” (priority 1996, published 2002).

Some results are limits rather than exact numbers.

For one data set, the target named is COX-1 (UniProt P23219). The data set is described as follows: COX-1 activity in vitro (PGE2 ELISA, recombinant enzyme). The data set is classed as biochemical, human or murine. To be noted: recombinant COX-1, arachidonic acid 10 μM. The method, then: Evaluation of COX-1 and COX-2 activity in vitro a. Preparation of recombinant COX baculoviruses
(§1) Recombinant COX-1 and COX-2 were prepared as described by Gierse et al, [J. Biochem., 305, 479-84 (1995)]. A 2.0 kb fragment containing the coding region of either human or murine COX-1 or human or murine COX-2 was cloned into a BamH1 site of the baculovirus tra nsfer vector pVL1393 (Invitrogen) to generate the baculovirus transfer vectors for COX-1 and coX-2 in a manner similar to the method of D. R. O'Reilly et al (Baculovirus Expression Vectors: A Laboratory Manual (1992)). Recombinant baculoviruses were isolated by transfecting 4 μg of baculovirus transfer vector DNA into SF9 insect cells (2×10^8) along with 200 ng of linearized baculovirus plasmid DNA by the calcium phosphate method. See M. D. Summers and G. E. Smith, A Manual of Methods for Baculovirus Vectors and Insect Cell Culture Procedures, Texas Agric. Exp. Station Bull. 1555 (1987). Recombinant viruses were purified by three rounds of plaque purification and high titer (10^7-10^8 pfu/ml) stocks of virus were prepared. For large scale production, SF9 insect cells were infected in 10 liter fermentors (0.5×10^6/ml) with the recombinant baculovirus stock such that the multiplicity of infection was 0.1. After 72 hours the cells were centrifuged and the cell pellet homogenized in Tris/Sucrose (50 mM: 25%, pH 8.0) containing 1% 3-[(3-cholamidopropyl)dimethylammonio]-1-propanesulfonate (CHAPS). The homogenate was centrifuged at 10,000×G for 30 minutes, and the resultant supernatant was stored at −80° C. before being assayed for COX activity. […]
(§2) b. Assay for COX-1 and COX-2 activitv
COX activity was assayed as PGE2 formed/μg protein/time using an ELISA to detect the prostaglandin released. CHAPS-solubilized insect cell membranes containing the appropriate COX enzyme were incubated in a potassium phosphate buffer (50 mM, pH 8.0) containing epinephrine, phenol, and heme with the addition of arachidonic acid (10 μM). […] The PGE2 formed was measured by standard ELISA technology (Cayman Chemical).

In a further data set the target is T1, 5-lipoxygenase (5-LO) (Homo sapiens, UniProt P09917).
T1 construct: Leukotriene B4 (LTB4) production in human whole blood; from tissue; host or cells: human whole blood (healthy donors, heparinized)
T1 sequence (P09917 1-674): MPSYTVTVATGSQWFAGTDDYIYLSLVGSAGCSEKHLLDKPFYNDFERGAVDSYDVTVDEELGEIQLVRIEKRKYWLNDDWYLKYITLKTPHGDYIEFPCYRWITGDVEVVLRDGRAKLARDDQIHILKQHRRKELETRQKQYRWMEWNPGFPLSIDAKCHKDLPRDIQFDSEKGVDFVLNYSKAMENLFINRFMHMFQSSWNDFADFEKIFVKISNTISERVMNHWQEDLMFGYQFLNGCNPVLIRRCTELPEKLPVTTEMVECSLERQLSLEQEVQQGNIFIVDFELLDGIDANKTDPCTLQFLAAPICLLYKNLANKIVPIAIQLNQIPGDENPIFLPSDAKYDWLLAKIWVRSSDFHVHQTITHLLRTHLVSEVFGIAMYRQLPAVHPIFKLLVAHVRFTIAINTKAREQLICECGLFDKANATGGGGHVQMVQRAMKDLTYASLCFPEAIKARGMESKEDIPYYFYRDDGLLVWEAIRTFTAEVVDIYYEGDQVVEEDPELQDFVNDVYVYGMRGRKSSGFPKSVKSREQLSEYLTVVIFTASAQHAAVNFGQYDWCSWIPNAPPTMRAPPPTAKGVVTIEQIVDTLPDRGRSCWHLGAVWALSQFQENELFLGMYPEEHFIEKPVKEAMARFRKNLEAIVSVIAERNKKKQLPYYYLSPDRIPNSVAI
In words: 5-Lipoxygenase activity: calcium ionophore-induced LTB4 production in human whole blood. In kind it is cell-based. The following applies: A-23187 20 μg/ml, LTB4 by ELISA, mean IC50. The method, then: Assay for 5-Lipoxygenase activity
The 5-lipoxygenase (5-LO) activity of the compounds were determined by the calcium ionophore-induced Leukotriene B4 (LTB4) production in human whole blood. Venous blood was collected from healthy human donors using heparin as an anti-coagulant. Human blood samples (0.2 ml of a 1:4 dilution in RPMI 1640 medium) were incubated in 96-well culture plates for 15 minutes at 37° C. with test compounds dissolved in ethanol (EtOH; final concentration <1%), or vehicle. Typically 7 concentrations of test compounds were examined in duplicate. A-23187 [Sigma] was added to the blood to a final concentration of 20 μg/ml, and the mixtures were incubated for 10 minutes at 37° C. The reaction was stopped by placing the samples on ice. The samples were then centrifuged at 800×g at 4° C. for 10 minutes to pellet the cells, and the supernatants were recovered for quantitation of LTB4 by ELISA (Cayman Chemical Co.; sensitivity 3 pg/ml). IC50's were estimated from a four parameter logistic model with two parameters fixed, the minimum (0% inhibition) and maximum (100% inhibition). The IC50 value is the concentration that produces 50% inhibition between the fixed values of the minimum and maximum. Data is reported as the mean IC50 for each compound.

In another data set the target is T2, COX-2 (UniProt P35354).
T2 sequence (P35354 1-604): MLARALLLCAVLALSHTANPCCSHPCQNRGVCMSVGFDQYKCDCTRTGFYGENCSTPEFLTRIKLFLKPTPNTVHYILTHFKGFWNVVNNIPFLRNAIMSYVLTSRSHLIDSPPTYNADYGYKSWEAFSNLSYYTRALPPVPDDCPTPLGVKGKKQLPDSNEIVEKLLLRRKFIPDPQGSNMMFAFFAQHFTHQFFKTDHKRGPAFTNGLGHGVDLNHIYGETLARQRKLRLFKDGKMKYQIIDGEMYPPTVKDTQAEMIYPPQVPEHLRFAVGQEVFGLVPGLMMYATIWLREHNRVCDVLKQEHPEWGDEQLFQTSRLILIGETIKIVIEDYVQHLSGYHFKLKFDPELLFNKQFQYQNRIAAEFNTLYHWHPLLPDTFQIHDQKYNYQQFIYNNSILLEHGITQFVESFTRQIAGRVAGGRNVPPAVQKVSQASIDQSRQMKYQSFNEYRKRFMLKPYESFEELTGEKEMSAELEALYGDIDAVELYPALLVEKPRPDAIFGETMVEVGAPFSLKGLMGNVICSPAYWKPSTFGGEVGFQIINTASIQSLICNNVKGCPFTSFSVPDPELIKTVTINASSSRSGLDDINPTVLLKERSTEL
In words: COX-2 activity in vitro (PGE2 ELISA, recombinant enzyme). In kind it is biochemical, human or murine. The following applies: recombinant COX-2, arachidonic acid 10 μM. The method, then: Evaluation of COX-1 and COX-2 activity in vitro
The COX-2 inhibition activity of the compounds of this invention illustrated in the Examples was determined by the following methods. a. Preparation of recombinant COX baculoviruses
as §1, §2
COX activity was assayed as PGE2 formed/μg protein/time using an ELISA to detect the prostaglandin released. […] The PGE2 formed was measured by standard ELISA technology (Cayman Chemical).
Background: In an ELISA, binding on a coated surface is turned into a signal by an enzyme label.

The subject of the next data set is carrageenan foot edema. In words: Rat carrageenan foot pad edema test. The data set is classed as in vivo. To be noted: male Sprague-Dawley rats, oral, 3 h after carrageenan. The method, then:
Rat Carrageenan Foot Pad Edema Test
The carrageenan foot edema test was performed with materials, reagents and procedures essentially as described by Winter, et al., (Proc. Soc. Exp. Biol. Med., 111, 544 (1962)). Male Sprague-Dawley rats were selected in each group so that the average body weight was as close as possible. Rats were fasted with free access to water for over sixteen hours prior to the test. The rats were dosed orally (1 mL) with compounds suspended in vehicle containing 0.5% methylcellulose and 0.025% surfactant, or with vehicle alone. One hour later a subplantar injection of 0.1 mL of 1% solution of carrageenan/sterile 0.9% saline was administered and the volume of the injected foot was measured with a displacement plethysmometer connected to a pressure transducer with a digital indicator. Three hours after the injection of the carrageenan, the volume of the foot was again measured. The average foot swelling in a group of drug-treated animals was compared with that of a group of placebo-treated animals and the percentage inhibition of edema was determined (Otterness and Bliven, Laboratory Models for Testing NSAIDs, in Non-steroidal Anti-Inflammatory Drugs, (J. Lombardino, ed. 1985)).

As to `NC(=O)N(O)Cc1cc(-c2ccc(Cl)cc2)n(-c2ccc(S(N)(=O)=O)cc2)n1` [Example 1, N′-[[1-[4-(Aminosulfonyl)phenyl]-5-(4-chlorophenyl)-1H-pyrazol-3-yl]methyl]-N′-hydroxyurea], the half-maximal inhibitory concentration (IC50) on COX-1 amounted to 53.5 µM; on 5-lipoxygenase (5-LO) it was 12.3 µM; at COX-2, 6.6 µM.

With `CN(O)C(=O)CCc1nc(-c2ccc(F)cc2)c(-c2ccc(S(C)(=O)=O)cc2)o1` [Example 2, 4-(4-Fluorophenyl)-N-hydroxy-N-methyl-5-[(4-methylsulfonyl)phenyl]-2-oxazolepropanamide], the IC50 on COX-1 is > 100 µM; on 5-lipoxygenase (5-LO) it was 0.05 µM; on COX-2 it was 5.1 µM. Also, in the data set on carrageenan foot edema, the “RAT PAW EDEMA % Inhibition @ 10 mg/kg body weight” value is 2%.

With `CN(O)C(=O)Cc1cc(-c2ccc(Cl)cc2)n(-c2ccc(S(N)(=O)=O)cc2)n1` [Example 3, [1-[4-(Aminosulfonyl)phenyl]-5-(4-chlorophenyl)-1H-pyrazol-3-yl]-N-hydroxy-N-methyl-ethanamide], the melting point is 110 to 135 °C (dec.).

As to `NS(=O)(=O)c1ccc(-c2nc(CCCC(=O)NO)oc2-c2ccc(Cl)c(Cl)c2)cc1` [Example 4, 4-[(4-Aminosulfonyl)phenyl]-5-(3,4-dichlorophenyl)-N-hydroxy-2-oxazole-butanamide], the melting point is 165 to 169.7 °C. For the same compound, on COX-1, the IC50 was found to be 12.5 µM. Also, on COX-2, the IC50 was 0.3 µM.
